Consider 1 compound from patent publication US20200170259A1, “COMPOSITIONS AND METHODS FOR INDUCING PLANT GENE EXPRESSION AND ALTERING PLANT MICROBIOME COMPOSITION FOR IMPROVED CROP PERFORMANCE” (ADVANCED BIOLOGICAL MARKETING, INC., priority 2018, published 2020).

The subject of one data set is maize gene expression. In words: Differential gene expression (Blast 2Go DGE) in maize versus control (FIGS. 20-25). Type of data set: in vivo. On the procedure:
Turning to FIGS. 20-24, differential gene expression (Blast 2Go DGE) is measured, wherein the corresponding legend of FIG. 20 presents comparison to a control, wherein the higher scale shown (color or patterned), the higher level of upregulation has occurred.
The lab plants were grown in conical tubes with nutrient bath and to simulate osmotic stress from drought they added a polyethylene glycol (PEG) solution to the tubes.
FIG. 25 depicts a table of changes in corn gene expression versus an untreated control in RNAseq experiments of FIGS. 20-24. Reference to “Lab (sterile, no soil)” is the data from the conical tube experiments of FIG. 23 and FIG. 24.

The next data set concerns corn gene expression. In words: RNAseq of corn seedlings, variability of gene expression (FIGS. 17-19). Type of data set: in vivo. From the text:
Plants colonized by Trichoderma show highly focused and reproducible patterns of gene expression. Uncolonized plants show highly variable gene expression. We propose that gene expression in plants colonized by Trichoderma responds specifically to that colonization and further that Trichoderma redirects plant gene expression to more targeted biological processes supporting Trichoderma niche development. Gene expression in uncolonized plants responds to the entire set of environmental factors present with relatively little process hierarchy. FIG. 17 depicts a representation of all gene expression in corn seedlings exposed to various seed treatments versus an untreated seed in both standard and drought conditions. FIG. 17 further groups the applicable replicates in order to convey variability, and data sets refer to principal component analysis, in order to evidence variability. All samples with the exception of the Trichoderma metabolite (1-Octene-3-ol), are root apical meristem (RAM) measurements. The sampling occurred from seeds that were grown for seven days before sampling. Observed variability was high in corn gene expression in standard and drought conditions. (See untreated). […] (see SabrEx and Oct). Thus, untreated plants are busy responding to a lot of environmental factors, Trichoderma strain treatment/1-Octene-3-ol treated plants are controlled somewhat by the treatment, which supports findings in previous RNAseq experiments, where correlation is shown by the reduction in microbiome diversity in the field, in the reduction of error bars in field performance data. This is a clear benefit of Trichoderma strain treatment and metabolite (1-Octene-3-ol). Reduction of variable performance in the field is therefore because the plant gene expression has been remodeled or refined by Trichoderma. FIGS. 18A-B depict multidimensional scaling plots of corn gene expression when colonized by Trichoderma, particularly, 2-Trichoderma strain treatment and untreated in unstressed conditions. […]

The subject of a further data set is rhizosphere inhabitants. Particulars: in vivo.

Experimental for rhizosphere inhabitants: A survey of rhizosphere inhabitants in a corn trial with control, Trichoderma strain treatment for corn (2 ABM Trichoderma strains), [MUT] (ABM Trichoderma+Bacillus strains), or Trichoderma metabolite (1-Octene-3-ol) seed treatments was made. The organism lifestyle metadata were analyzed for each treatment.

On to `C=CC(O)CCCCC` (centres unmarked) [1-Octene-3-ol], for which, in the data set on maize gene expression, the Shoot responses upregulated entry is “Abiotic stimulus, water deprivation, and chemical stimulus”. Besides, the “Reproducibility of expression pattern (multidimensional scaling plot)” value with corn gene expression (FIGS. 18A-B, unstressed conditions per legend) is reported as “generally more reproducible expression pattern than the untreated”; in the data set on corn gene expression (FIGS. 19A-B, drought conditions per legend), “generally more reproducible expression pattern than the untreated”. Moreover, the “Effect on variability of overall corn gene expression (principal component analysis)” value with corn gene expression (seedlings grown seven days, standard and drought conditions, FIG. 17) was “focusses gene expression”. The “Plant disease resulting from rhizosphere pathogens” value with rhizosphere inhabitants is “did not result in plant disease”.
